Source: BindingDB's records for doi:10.1038/nchembio.307 (Harvard Medical School, 2010)

Biological target: T1, Amine oxidase [flavin-containing] B (Homo sapiens, UniProt P27338)
T1 sequence (P27338 whole entry): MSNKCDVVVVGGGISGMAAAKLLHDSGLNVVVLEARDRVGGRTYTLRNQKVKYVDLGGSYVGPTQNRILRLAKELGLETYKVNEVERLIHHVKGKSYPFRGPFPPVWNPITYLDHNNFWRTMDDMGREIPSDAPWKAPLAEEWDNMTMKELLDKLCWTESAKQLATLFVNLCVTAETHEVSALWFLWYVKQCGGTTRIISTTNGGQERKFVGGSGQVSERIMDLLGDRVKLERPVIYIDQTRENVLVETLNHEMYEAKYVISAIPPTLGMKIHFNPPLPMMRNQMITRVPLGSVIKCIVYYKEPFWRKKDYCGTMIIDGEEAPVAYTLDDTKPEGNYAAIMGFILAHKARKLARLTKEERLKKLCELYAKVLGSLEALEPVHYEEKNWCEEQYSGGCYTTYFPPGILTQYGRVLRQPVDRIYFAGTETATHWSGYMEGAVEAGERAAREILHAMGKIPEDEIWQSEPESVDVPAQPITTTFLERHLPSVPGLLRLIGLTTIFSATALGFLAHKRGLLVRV
Assay: MAO-B Enzymatic Assay
Description: Momoamine oxidase type B(MAO-B) activity in vitro assay using molecules that caused a photomotor response (PMR) "magnitude stimulant' (MAG) phenotype characterized by increased PMR excitation magnitude.

CC(C)(C)OC(=O)NCC(=O)Oc1ccc(C(=O)Oc2ccc3c4c(c(=O)oc3c2)CCC4)cc1Cl [MAG-7]
IC50: 0.5 µM

CC(C)(C)OC(=O)NCCC(=O)Oc1ccc(C(=O)Oc2ccc3c4c(c(=O)oc3c2)CCC4)cc1Cl [MAG-3]
IC50: 1 µM

O=C(CNC(=O)OCc1ccccc1)Oc1ccc(C(=O)Oc2ccc3c4c(c(=O)oc3c2)CCC4)cc1Cl [MAG-6]
IC50: 10 µM

CC(C)(C)OC(=O)NCCC(=O)Oc1ccc(C(=O)Oc2ccc3c4c(c(=O)oc3c2)CCCC4)cc1Cl [MAG-5]
IC50: 10 µM
